Results taken from patent US20250186450A1, “COMBINATION THERAPY COMPRISING DGK INHIBITORS and PD-1/PD-L1 INHIBITORS” (Incyte Corporation, priority 2023, published 2025).
Entries after “also recorded” stand apart in the source; their conditions may differ.

Tests used:
[1] = test system: human CD3+ T cells co-cultured with allogenic dendritic cells; assay: Allogenic mixed lymphocyte reaction assay, IFNγ by HTRF; assay type: cell-based
Experimental: To assess the ability of 4-((2S,5R)-4-((3,3-difluorocyclobutyl)(4-(trifluoromethyl)phenyl)methyl)-2,5-dimethylpiperazin-1-yl)-2-methyl-1-(((S)-tetrahydrofuran-2-yl)methyl)-1H-[1,2,4]triazolo[3,4-b]purine (i.e., Compound 2) to further enhance the T cell effector function induced by checkpoint blockade, the combination effect of Compound 2 and anti-PD-1 reagent (retifanlimab and pembrolizumab) was evaluated in an allogenic mixed lymphocyte reaction assay.
In brief, Human PBMCs were isolated from leukopaks (BioIVT) obtained from healthy donors by the Ficoll-Paque (Cytiva 17144002) cell separation method. Monocyte isolation was performed using the Dynabeads Untouched human monocyte kit (Life Technologies 11350D), and monocytes were cultured in 10% FBS RPMI 1640 treated with 100 ng/mL granulocyte-macrophage colony-stimulating factor (R&D Systems 215-GM/CF) and 50 ng/mL IL-4 (R&D Systems 204-IL/CF) for at least 6 days at 37° C. with 5% CO2 to differentiate into dendritic cells. Pan T cells were isolated using the Dynabeads Untouched human T-cell kit (Life Technologies 11344D) and plated at 1×10^5 cells/well in 100 μL of 10% FBS RPMI 1640 in 96-well, round-bottom plates (Costar 3879). […] After 20 hours of incubation at room temperature, the HTRF signal was measured by the PHERAstar FSX microplate reader (BMG Labtech). […]

[2] = test system: CT26 syngeneic tumors overexpressing human PD-L1 (Clone299); assay: Human PD-1/human PD-L1 dual knock-in model; assay type: in vivo, human PD-1/human PD-L1 dual Knock-In mice
Experimental: The in vivo effect of combining Compound 1 plus (R)-1-((7-cyano-2-(3′-(2-(difluoromethyl)-7-((3-hydroxypyrrolidin-1-yl)methyl)pyrido[3,2-d]pyrimidin-4-ylamino)-2,2′-dimethylbiphenyl-3-yl)benzo[d]oxazol-5-yl)methyl)piperidine-4-carboxylic acid (i.e., Compound A) was assessed in 8 to 10 weeks old human PD-1/human PD-L1 dual Knock-In mice (GemPharmatech, Shanghai, China) using CT26 syngeneic tumors overexpressing human PD-L1 (Clone299, Synthego, California). Both Compound 1 and Compound A were suspended in 5% N,N-dimethylacetamide (DMAC)+50 mM Citrate buffer in 0.5% methyl cellulose for oral administration. […] On day 17, tumor dimensions were measured by Vernier calipers, and volume estimated by the formula Volume=[L (long dimension)×W^2 (short dimension)]/2. […] Tumors were measured 3 times per week for the duration of the study. […]
The in vivo effect of Compound 2 plus Anti-PD-L1 (atezolizumab) was assessed in 8 to 10 weeks old human PD-1/human PD-L1 dual Knock-In mice (GemPharmatech, Shanghai, China) using CT26 syngeneic tumors overexpressing human PD-L1 (Clone299, Synthego, California). […] On day 12, tumor dimensions were measured by Vernier calipers, and volume estimated by the formula Volume=[L (long dimension)×W^2 (short dimension)]/2. […] Tumors were measured 3 times per week for the duration of the study. […]

Compound | production of IFNγ, combination vs single agents ([1]; 4 nM Compound 2 plus 0.7 nM pembrolizumab vs anti-PD-1 mAb or Compound 2 single agent, FIG. 5B) | production of IFNγ, combination vs single agents ([1]; 4 nM Compound 2 plus 0.7 nM retifanlimab vs anti-PD-1 mAb or Compound 2 single agent, FIG. 5A) | TGI, combined with Anti-PD-L1 mAb, vs Anti-PD-L1 mAb control group ([2]; 1.5 mg/kg Compound 2 Q2D and Anti-PD-L1 (atezolizumab), FIG. 8) | combination effect on tumor growth delay (Bliss Independence analysis) ([2]; 10 mg/kg Compound 1 QD with 25 mg/kg Compound A BID for 15 days, vs respective controls, FIG. 4)
Cc1nc2c(N3C[C@@H](C)N(C(c4ccc(C(F)(F)F)cc4)C4CC(F)(F)C4)C[C@@H]3C)nc3nncn3c2n1C[C@@H]1CCCO1 (single isomer, unassigned) [Example 2] | statistically significant higher production of IFNγ | statistically significant higher production of IFNγ | statistically significant; also recorded: significant TGI | –
C[C@@H]1CN(c2nc3nncn3c3c2nnn3C[C@H]2CCCO2)[C@@H](C)CN1C(c1ccc(F)cc1)c1ccc(F)cc1 [Example 1, 4-((2S,5R)-4-(Bis(4-fluorophenyl)methyl)-2,5-dimethylpiperazin-1-yl)-1-(((R)-tetrahydrofuran-2-yl)methyl)-1H-[1,2,3]triazolo[4,5-e][1,2,4]triazolo[4,3-a]pyrimidine] | – | – | – | synergistic effect in tumor growth delay
